Reference: article PMC11008770 (Nature structural & molecular biology, 2023)
Like-named read-outs stand apart in the source and are kept apart here.

Tests used:
AE1 [1] = target: T1, AE1 (Homo sapiens, UniProt P02730); experiment: Cellular bicarbonate uptake assay; format: cell-based
T1 sequence (P02730 1-911): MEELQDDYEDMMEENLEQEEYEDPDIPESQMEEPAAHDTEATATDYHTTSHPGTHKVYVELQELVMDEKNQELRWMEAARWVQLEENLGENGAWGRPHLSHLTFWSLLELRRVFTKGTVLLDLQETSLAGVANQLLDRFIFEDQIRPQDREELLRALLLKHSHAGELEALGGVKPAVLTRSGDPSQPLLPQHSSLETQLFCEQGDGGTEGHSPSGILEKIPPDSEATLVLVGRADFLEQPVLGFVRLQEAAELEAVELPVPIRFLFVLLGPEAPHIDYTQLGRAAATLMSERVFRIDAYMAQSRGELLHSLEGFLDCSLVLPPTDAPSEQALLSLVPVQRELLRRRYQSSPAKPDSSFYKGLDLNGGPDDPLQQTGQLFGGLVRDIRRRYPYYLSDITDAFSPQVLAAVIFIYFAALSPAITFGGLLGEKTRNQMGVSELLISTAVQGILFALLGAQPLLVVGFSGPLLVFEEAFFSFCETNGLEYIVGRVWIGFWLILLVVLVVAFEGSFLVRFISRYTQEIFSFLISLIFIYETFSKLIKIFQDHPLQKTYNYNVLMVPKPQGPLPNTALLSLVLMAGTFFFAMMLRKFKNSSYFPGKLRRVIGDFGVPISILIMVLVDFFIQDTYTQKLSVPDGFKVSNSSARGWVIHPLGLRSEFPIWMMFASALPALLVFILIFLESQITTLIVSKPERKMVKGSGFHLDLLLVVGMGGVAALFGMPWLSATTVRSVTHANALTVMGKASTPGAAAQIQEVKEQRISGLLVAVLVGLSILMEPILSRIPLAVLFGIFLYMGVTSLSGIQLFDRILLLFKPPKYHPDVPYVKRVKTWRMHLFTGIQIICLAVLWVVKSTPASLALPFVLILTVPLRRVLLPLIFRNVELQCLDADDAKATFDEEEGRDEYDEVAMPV

AE1 [2] = details: read-out: Kd of bicarbonate; flux studies in erythrocytes; cited from earlier work
AE1 [3] = details: read-out: Kd of bicarbonate; NMR studies; cited from earlier work

IC50 (AE1 [1]) [µM]	AE1 inhibition in cellular bicarbonate uptake, single dose (AE1 [1]; 50 μM throughout the experiment, n = 3)	SMILES	Kd (AE1 [2]) [µM]	Kd (AE1 [3]) [µM]
15	statistically significant AE1 inhibition	O=C(O)c1cccnc1Nc1cccc(C(F)(F)F)c1 [NIF, Niflumic acid]		
		O=C(O)O [bicarbonate]	2000	5400
